Assay [1] has as its system antibodies in sera from SARS patients (sera 1a, 1b, 2, 6, 37, 62, London, SARS-yellow, SARS-green). It is filed as binding, human. Details: Binding of serum 6 to linear peptides of protein X1 of SARS-CoV Urbani / Binding of serum 37 to linear peptides of protein X1 of SARS-CoV Urbani / Binding of serum 6 to looped/cyclic peptide (PEPSCAN-ELISA) / Binding of serum 37 to looped/cyclic peptide (PEPSCAN-ELISA) / Binding of serum 37 to looped/cyclic peptides of protein X1 of SARS-CoV Urbani / Binding of serum 6 to linear peptides of protein X2 / Binding of serum 37 to linear peptides of protein X2 / Binding of serum 37 to looped/cyclic peptides of protein X2 of SARS-CoV Urbani / Binding of serum 6 to linear peptides of protein M of SARS-CoV Urbani / Binding of serum 37 to linear peptides of protein M of SARS-CoV Urbani / Binding of serum 6 to looped/cyclic peptides of protein M of SARS-CoV Urbani / Binding of serum 37 to looped/cyclic peptides of protein M of SARS-CoV Urbani / Binding of serum 6 to linear peptides of protein X3 of SARS-CoV Urbani / Binding of serum 37 to linear peptides of protein X3 of SARS-CoV Urbani / Binding of serum 37 to looped/cyclic peptides of protein X3 of SARS-CoV Urbani / Binding of serum 6 to linear peptides of protein X4 of SARS-CoV Urbani / Binding of serum 37 to linear peptides of protein X4 of SARS-CoV Urbani / Binding of serum 37 to looped/cyclic peptides of protein X4 of SARS-CoV Urbani / Binding of serum 6 to linear peptides of protein X5 of SARS-CoV Urbani / Binding of serum 37 to linear peptides of protein X5 of SARS-CoV Urbani / Binding of serum 37 to looped/cyclic peptides of protein X5 of SARS-CoV Urbani / Binding of serum 6 to linear peptides of protein N of SARS-CoV Urbani / Binding of serum 37 to linear peptides of protein N of SARS-CoV Urbani / Binding of serum 6 to linear peptide (PEPSCAN-ELISA) / Binding of serum 1a to looped/cyclic peptides of protein N of SARS-CoV Urbani / Binding of serum 1b to looped/cyclic peptides of protein N of SARS-CoV Urbani / Binding of serum 2 to looped/cyclic peptides of protein N of SARS-CoV Urbani / Binding of serum 6 to looped/cyclic peptides of protein N of SARS-CoV Urbani / Binding of serum 37 to looped/cyclic peptides of protein N of SARS-CoV Urbani / Binding of serum 62 to looped/cyclic peptides of protein N of SARS-CoV Urbani / Binding of serum London to looped/cyclic peptides of protein N of SARS-CoV Urbani / Binding of serum SARS-green to looped/cyclic peptides of protein N of SARS-CoV Urbani: unit not given here.

Assay [2] relates to control sera (pooled serum of ten healthy LUMC hospital workers; commercial negative donor pooled serum from the Dutch bloodbank). The format is binding, human.
The test system of assay [3] is rabbit serum obtained by immunizing a rabbit with the SARS-CoV strain Frankfurt 1. It is filed as binding. Details: Binding of a rabbit serum to linear peptides / Binding of a rabbit serum to looped peptides / Rabbit serum linear peptides / Rabbit serum looped peptides / Binding of a rabbit serum to linear peptides of protein N of SARS-CoV Urbani (Rabbit serum linear peptides) / Binding of a rabbit serum to looped/cyclic peptides of protein N of SARS-CoV Urbani (Rabbit serum looped peptides): unit not given here.

TALRLCAYCCNIVNV: in assay [1], the “Binding of serum 1a to linear peptides of protein E of SARS-CoV Urbani” value is recorded as 0.7, the “Binding of serum 1a to looped/cyclic peptides of protein E of SARS-CoV Urbani” value amounted to 0.7, the “Binding of serum 1b to linear peptides of protein E of SARS-CoV Urbani” value was 0.5 and the “Binding of serum 1b to looped/cyclic peptides of protein E of SARS-CoV Urbani” value stood at 0.4. Further, in assay [1], the “Binding of serum 2 to linear peptides of protein E of SARS-CoV Urbani” value stood at 0.5, the “Binding of serum 2 to looped/cyclic peptides of protein E of SARS-CoV Urbani” value is 0.8, the “Binding of serum 6 to linear peptides of protein E of SARS-CoV Urbani” value was determined as 0.4 and the “Binding of serum 6 to looped/cyclic peptides of protein E of SARS-CoV Urbani” value worked out at 0.6. In assay [1], the “Binding of serum 37 to linear peptides of protein E of SARS-CoV Urbani” value came out at 0.5, the “Binding of serum 37 to looped/cyclic peptides of protein E of SARS-CoV Urbani” value turned out to be 0.7, the “Binding of serum 62 to linear peptides of protein E of SARS-CoV Urbani” value is 0.5 and the “Binding of serum 62 to looped/cyclic peptides of protein E of SARS-CoV Urbani” value was determined as 0.9. For the same sequence, in assay [1], the “Binding of serum London to linear peptides of protein E of SARS-CoV Urbani” value is 0.5, the “Binding of serum London to looped/cyclic peptides of protein E of SARS-CoV Urbani” value was 0.5, the “Binding of serum SARS-green to linear peptides of protein E of SARS-CoV Urbani” value was found to be 0.6 and the “Binding of serum SARS-green to looped/cyclic peptides of protein E of SARS-CoV Urbani” value is given as 0.7. For the same sequence, in assay [1], the “Binding of serum SARS-yellow to linear peptides of protein E of SARS-CoV Urbani” value turned out to be 0.2 and the “Binding of serum SARS-yellow to looped/cyclic peptides of protein E of SARS-CoV Urbani” value was 0.9. Further, in assay [2], the “Binding of Control Serum Blood-Bank to Looped peptides” value is given as 0.7, the “Binding of Control serum Blood-bank to linear peptides” value is 0.5, the “Binding of Control serum LUMC to linear peptides” value turned out to be 0.6 and the “Binding of Control serum LUMC to looped peptides” value worked out at 0.7. In assay [3], the “Binding of a rabbit serum to linear peptides” value turned out to be 0.2 and the “Binding of a rabbit serum to looped peptides” value was 0.4.
As for SVLLFLAFVVFLLVT, in assay [1], the “Binding of serum 1a to linear peptides of protein E of SARS-CoV Urbani” value was 0.8, the “Binding of serum 1a to looped/cyclic peptides of protein E of SARS-CoV Urbani” value is 0.6, the “Binding of serum 1b to linear peptides of protein E of SARS-CoV Urbani” value is 0.7 and the “Binding of serum 1b to looped/cyclic peptides of protein E of SARS-CoV Urbani” value is 0.5. Further, in assay [1], the “Binding of serum 2 to linear peptides of protein E of SARS-CoV Urbani” value was 0.5, the “Binding of serum 2 to looped/cyclic peptides of protein E of SARS-CoV Urbani” value is listed as 0.5, the “Binding of serum 6 to linear peptides of protein E of SARS-CoV Urbani” value was 0.9 and the “Binding of serum 6 to looped/cyclic peptides of protein E of SARS-CoV Urbani” value worked out at 0.4. In assay [1], the “Binding of serum 37 to linear peptides of protein E of SARS-CoV Urbani” value amounted to 0.8, the “Binding of serum 37 to looped/cyclic peptides of protein E of SARS-CoV Urbani” value was 0.6, the “Binding of serum 62 to linear peptides of protein E of SARS-CoV Urbani” value was found to be 0.7 and the “Binding of serum 62 to looped/cyclic peptides of protein E of SARS-CoV Urbani” value was determined as 0.6. Further, in assay [1], the “Binding of serum London to linear peptides of protein E of SARS-CoV Urbani” value is on record as 0.5, the “Binding of serum London to looped/cyclic peptides of protein E of SARS-CoV Urbani” value is listed as 0.4, the “Binding of serum SARS-green to linear peptides of protein E of SARS-CoV Urbani” value came out at 0.5 and the “Binding of serum SARS-green to looped/cyclic peptides of protein E of SARS-CoV Urbani” value turned out to be 0.6. Also, in assay [1], the “Binding of serum SARS-yellow to linear peptides of protein E of SARS-CoV Urbani” value turned out to be 0.3 and the “Binding of serum SARS-yellow to looped/cyclic peptides of protein E of SARS-CoV Urbani” value was 0.6. Moreover, in assay [2], the “Binding of Control Serum Blood-Bank to Looped peptides” value was determined as 0.6, the “Binding of Control serum Blood-bank to linear peptides” value is 0.7, the “Binding of Control serum LUMC to linear peptides” value is 0.5 and the “Binding of Control serum LUMC to looped peptides” value came to 0.7. For the same sequence, in assay [3], the “Binding of a rabbit serum to linear peptides” value turned out to be 0.6 and the “Binding of a rabbit serum to looped peptides” value was determined as 0.2.
Regarding IAEILIIIMRTFRIA, in assay [1], the “Binding of serum 1a to linear peptides of protein X3 of SARS-CoV Urbani” value worked out at 0.8, the “Binding of serum 1a to looped/cyclic peptides of protein X3 of SARS-CoV Urbani” value is reported as 0.7, the “Binding of serum 1b to linear peptides of protein X3 of SARS-CoV Urbani” value was 0.5 and the “Binding of serum 1b to looped/cyclic peptides of protein X3 of SARS-CoV Urbani” value turned out to be 0.3. Also, in assay [1], the “Binding of serum 2 to linear peptides of protein X3 of SARS-CoV Urbani” value was determined as 0.6, the “Binding of serum 2 to looped/cyclic peptides of protein X3 of SARS-CoV Urbani” value was 0.5, the “Binding of serum 6 to linear peptides of protein X3 of SARS-CoV Urbani” value turned out to be 0.0 and the “Binding of serum 6 to looped/cyclic peptides of protein X3 of SARS-CoV Urbani” value is given as 0.7. Further, in assay [1], the “Binding of serum 37 to linear peptides of protein X3 of SARS-CoV Urbani” value came out at 0.6, the “Binding of serum 37 to looped/cyclic peptides of protein X3 of SARS-CoV Urbani” value was determined as 0.4, the “Binding of serum 62 to linear peptides of protein X3 of SARS-CoV Urbani” value is listed as 0.7 and the “Binding of serum 62 to looped/cyclic peptides of protein X3 of SARS-CoV Urbani” value turned out to be 0.4. In assay [1], the “Binding of serum London to linear peptides of protein X3 of SARS-CoV Urbani” value was found to be 0.7, the “Binding of serum London to looped/cyclic peptides of protein X3 of SARS-CoV Urbani” value was 0.8, the “Binding of serum SARS-green to linear peptides of protein X3 of SARS-CoV Urbani” value is reported as 0.3 and the “Binding of serum SARS-green to looped/cyclic peptides of protein X3 of SARS-CoV Urbani” value amounted to 0.2. Moreover, in assay [1], the “Binding of serum SARS-yellow to linear peptides of protein X3 of SARS-CoV Urbani” value worked out at 0.3 and the “Binding of serum SARS-yellow to looped/cyclic peptides of protein X3 of SARS-CoV Urbani” value was found to be 0.6. Also, in assay [2], the “Binding of Control Serum Blood-Bank to Looped peptides of the protein X3 of SARS-CoV Urbani” value stood at 0.8, the “Binding of Control serum Blood-bank to linear peptides of the protein X3 of SARS-CoV Urbani” value was found to be 0.9, the “Binding of Control serum LUMC to linear peptides of the protein X3 of SARS-CoV Urbani” value stood at 0.5 and the “Binding of Control serum LUMC to looped peptides of the protein X3 of SARS-CoV Urbani” value stood at 0.9. Further, in assay [3], the “Rabbit serum linear peptides” value is recorded as 0.3 and the “Rabbit serum looped peptides” value came out at 0.2.
Consider AILTALRLCAYCCNI, for which, in assay [1], the “Binding of serum 1a to linear peptides of protein E of SARS-CoV Urbani” value was determined as 0.6, the “Binding of serum 1a to looped/cyclic peptides of protein E of SARS-CoV Urbani” value is 0.8, the “Binding of serum 1b to linear peptides of protein E of SARS-CoV Urbani” value was found to be 0.4 and the “Binding of serum 1b to looped/cyclic peptides of protein E of SARS-CoV Urbani” value came to 0.6. Also, in assay [1], the “Binding of serum 2 to linear peptides of protein E of SARS-CoV Urbani” value came to 0.5, the “Binding of serum 2 to looped/cyclic peptides of protein E of SARS-CoV Urbani” value is reported as 0.7, the “Binding of serum 6 to linear peptides of protein E of SARS-CoV Urbani” value is reported as 0.3 and the “Binding of serum 6 to looped/cyclic peptides of protein E of SARS-CoV Urbani” value was found to be 0.5. For the same sequence, in assay [1], the “Binding of serum 37 to linear peptides of protein E of SARS-CoV Urbani” value was 0.4, the “Binding of serum 37 to looped/cyclic peptides of protein E of SARS-CoV Urbani” value worked out at 0.7, the “Binding of serum 62 to linear peptides of protein E of SARS-CoV Urbani” value was determined as 0.4 and the “Binding of serum 62 to looped/cyclic peptides of protein E of SARS-CoV Urbani” value came out at 0.8. Also, in assay [1], the “Binding of serum London to linear peptides of protein E of SARS-CoV Urbani” value is given as 0.5, the “Binding of serum London to looped/cyclic peptides of protein E of SARS-CoV Urbani” value turned out to be 0.4, the “Binding of serum SARS-green to linear peptides of protein E of SARS-CoV Urbani” value amounted to 0.5 and the “Binding of serum SARS-green to looped/cyclic peptides of protein E of SARS-CoV Urbani” value was 0.5. For the same sequence, in assay [1], the “Binding of serum SARS-yellow to linear peptides of protein E of SARS-CoV Urbani” value is 0.1 and the “Binding of serum SARS-yellow to looped/cyclic peptides of protein E of SARS-CoV Urbani” value was 0.9. In assay [2], the “Binding of Control Serum Blood-Bank to Looped peptides” value is on record as 0.6, the “Binding of Control serum Blood-bank to linear peptides” value amounted to 0.6, the “Binding of Control serum LUMC to linear peptides” value is reported as 0.6 and the “Binding of Control serum LUMC to looped peptides” value is 0.8. Besides, in assay [3], the “Binding of a rabbit serum to linear peptides” value was found to be 0.2 and the “Binding of a rabbit serum to looped peptides” value was 0.6.

The values are drawn from patent US20070128217A1 (priority 2003, published 2007).
